Laboratory results reported in PubChem BioAssay AID1963963 (Molecular Pharmacology Branch, DTP, NCI, 2024).

System: 958667-338-R-J2-PDC tumor spheroids viability
Assay: Anticancer human tumor 958667-338-R-J2-PDC patient-derived colon adenocarcinoma cell line growth inhibition [PI3K]
Details: spheroids with HUVEC and MSC; for IC50: curve of first compound; for viability, T/C: stronger effect = lower value
Summary of the method: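 High-throughput combination screen: PI3K inhibitors crossed with targeted small molecules on complex spheroids of tumor cells, HUVEC and MSCs at 37 degrees C, 5% CO2. Top concentration was at or near clinical Cmax (otherwise 10 microM), with half-log decrements.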
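Note: spheroids exposed to compounds for seven days before readout.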

Structure (SMILES): CNC(=O)c1ccc(N2C(=S)N(c3ccc(C#N)c(C(F)(F)F)c3)C(=O)C2(C)C)cc1F + Cc1nc(NC(=O)N2CCCC2C(N)=O)sc1-c1ccnc(C(C)(C)C(F)(F)F)c1
- IC50 (second compound 0.0316 µM): > 10000 nM
- IC50 (second compound 0.1 µM): > 10000 nM
- IC50 (second compound 0.316 µM): > 10000 nM
- IC50 (second compound 1 µM): > 10000 nM
- IC50 (second compound 3.16 µM): > 10000 nM
- IC50 (second compound 10 µM): > 10000 nM
- viability, T/C (second compound 0.0316 µM, first compound 0.0316 µM): 109%
- viability, T/C (second compound 0.0316 µM, first compound 0.1 µM): 94.6%
- viability, T/C (second compound 0.0316 µM, first compound 0.316 µM): 93.8%
- viability, T/C (second compound 0.0316 µM, first compound 1 µM): 131%
- viability, T/C (second compound 0.0316 µM, first compound 3.16 µM): 101%
- viability, T/C (second compound 0.0316 µM, first compound 10 µM): 90.5%
- viability, T/C (second compound 0.1 µM, first compound 0.0316 µM): 105%
- viability, T/C (second compound 0.1 µM, first compound 0.1 µM): 112%
- viability, T/C (second compound 0.1 µM, first compound 0.316 µM): 103%
- viability, T/C (second compound 0.1 µM, first compound 1 µM): 91.9%
- viability, T/C (second compound 0.1 µM, first compound 3.16 µM): 134%
- viability, T/C (second compound 0.1 µM, first compound 10 µM): 93.2%
- viability, T/C (second compound 0.316 µM, first compound 0.0316 µM): 78.9%
- viability, T/C (second compound 0.316 µM, first compound 0.1 µM): 102%
- viability, T/C (second compound 0.316 µM, first compound 0.316 µM): 93.2%
- viability, T/C (second compound 0.316 µM, first compound 1 µM): 76.4%
- viability, T/C (second compound 0.316 µM, first compound 3.16 µM): 98%
- viability, T/C (second compound 0.316 µM, first compound 10 µM): 93.6%
- viability, T/C (second compound 1 µM, first compound 0.0316 µM): 74.5%
- viability, T/C (second compound 1 µM, first compound 0.1 µM): 71.2%
- viability, T/C (second compound 1 µM, first compound 0.316 µM): 88%
- viability, T/C (second compound 1 µM, first compound 1 µM): 70.8%
- viability, T/C (second compound 1 µM, first compound 3.16 µM): 97.7%
- viability, T/C (second compound 1 µM, first compound 10 µM): 82.4%
- viability, T/C (second compound 3.16 µM, first compound 0.0316 µM): 76.9%
- viability, T/C (second compound 3.16 µM, first compound 0.1 µM): 69%
- viability, T/C (second compound 3.16 µM, first compound 0.316 µM): 64.3%
- viability, T/C (second compound 3.16 µM, first compound 1 µM): 78.5%
- viability, T/C (second compound 3.16 µM, first compound 3.16 µM): 72.3%
- viability, T/C (second compound 3.16 µM, first compound 10 µM): 65.2%
- viability, T/C (second compound 10 µM, first compound 0.0316 µM): 65.2%
- viability, T/C (second compound 10 µM, first compound 0.1 µM): 67.3%
- viability, T/C (second compound 10 µM, first compound 0.316 µM): 58.6%
- viability, T/C (second compound 10 µM, first compound 1 µM): 62.1%
- viability, T/C (second compound 10 µM, first compound 3.16 µM): 60.9%
- viability, T/C (second compound 10 µM, first compound 10 µM): 46.9%

Structure (SMILES): Cn1cnc2c(F)c(Nc3ccc(Br)cc3Cl)c(C(=O)NOCCO)cc21 + Cc1nc(NC(=O)N2CCCC2C(N)=O)sc1-c1ccnc(C(C)(C)C(F)(F)F)c1
- IC50 (second compound 0.0316 µM): 413 nM
- IC50 (second compound 0.1 µM): 328 nM
- IC50 (second compound 0.316 µM): 108 nM
- IC50 (second compound 1 µM): 58.5 nM
- IC50 (second compound 3.16 µM): 66 nM
- IC50 (second compound 10 µM): 14.2 nM
- viability, T/C (second compound 0.0316 µM, first compound 0.00949 µM): 99.2%
- viability, T/C (second compound 0.0316 µM, first compound 0.03 µM): 81.9%
- viability, T/C (second compound 0.0316 µM, first compound 0.0949 µM): 73.6%
- viability, T/C (second compound 0.0316 µM, first compound 0.3 µM): 56.9%
- viability, T/C (second compound 0.0316 µM, first compound 0.949 µM): 35.1%
- viability, T/C (second compound 0.0316 µM, first compound 3 µM): 15.8%
- viability, T/C (second compound 0.1 µM, first compound 0.00949 µM): 96.1%
- viability, T/C (second compound 0.1 µM, first compound 0.03 µM): 95.3%
- viability, T/C (second compound 0.1 µM, first compound 0.0949 µM): 60.3%
- viability, T/C (second compound 0.1 µM, first compound 0.3 µM): 52.3%
- viability, T/C (second compound 0.1 µM, first compound 0.949 µM): 36.4%
- viability, T/C (second compound 0.1 µM, first compound 3 µM): 12.7%
- viability, T/C (second compound 0.316 µM, first compound 0.00949 µM): 94.8%
- viability, T/C (second compound 0.316 µM, first compound 0.03 µM): 69%
- viability, T/C (second compound 0.316 µM, first compound 0.0949 µM): 52.7%
- viability, T/C (second compound 0.316 µM, first compound 0.3 µM): 35.5%
- viability, T/C (second compound 0.316 µM, first compound 0.949 µM): 21.9%
- viability, T/C (second compound 0.316 µM, first compound 3 µM): 11.9%
- viability, T/C (second compound 1 µM, first compound 0.00949 µM): 80%
- viability, T/C (second compound 1 µM, first compound 0.03 µM): 63%
- viability, T/C (second compound 1 µM, first compound 0.0949 µM): 40.3%
- viability, T/C (second compound 1 µM, first compound 0.3 µM): 24%
- viability, T/C (second compound 1 µM, first compound 0.949 µM): 14.7%
- viability, T/C (second compound 1 µM, first compound 3 µM): 7.55%
- viability, T/C (second compound 3.16 µM, first compound 0.00949 µM): 50.3%
- viability, T/C (second compound 3.16 µM, first compound 0.03 µM): 63.5%
- viability, T/C (second compound 3.16 µM, first compound 0.0949 µM): 46.2%
- viability, T/C (second compound 3.16 µM, first compound 0.3 µM): 16.4%
- viability, T/C (second compound 3.16 µM, first compound 0.949 µM): 11%
- viability, T/C (second compound 3.16 µM, first compound 3 µM): 3.01%
- viability, T/C (second compound 10 µM, first compound 0.00949 µM): 56.8%
- viability, T/C (second compound 10 µM, first compound 0.03 µM): 37.7%
- viability, T/C (second compound 10 µM, first compound 0.0949 µM): 12.8%
- viability, T/C (second compound 10 µM, first compound 0.3 µM): 9.46%
- viability, T/C (second compound 10 µM, first compound 0.949 µM): 5.65%
- viability, T/C (second compound 10 µM, first compound 3 µM): 1.13%
